Test results published in PubChem BioAssay (NCI).
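Following 48 hours of exposure in 96-well plates, responses at five concentrations were used to interpolate endpoints linearly. GI50: concentration for 50% inhibition of growth. TGI marks complete inhibition of growth.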

Assays:
Test in all cases: NCI-60 cell line screen, 48 h
ACHN renal = test system: ACHN renal
MOLT-4 leukemia = test system: MOLT-4 leukemia
HCT-15 colon = test system: HCT-15 colon
A498 renal = test system: A498 renal
IGROV1 ovarian = test system: IGROV1 ovarian
SK-MEL-28 melanoma = test system: SK-MEL-28 melanoma
TK-10 renal = test system: TK-10 renal
LOX IMVI melanoma = test system: LOX IMVI melanoma
SK-OV-3 ovarian = test system: SK-OV-3 ovarian
CAKI-1 renal = test system: CAKI-1 renal
OVCAR-4 ovarian = test system: OVCAR-4 ovarian
SK-MEL-5 melanoma = test system: SK-MEL-5 melanoma
NCI/ADR-RES ovarian = test system: NCI/ADR-RES ovarian
BT-549 breast = test system: BT-549 breast
PC-3 prostate = test system: PC-3 prostate
COLO 205 colon = test system: COLO 205 colon
SF-295 CNS = test system: SF-295 CNS
SR leukemia = test system: SR leukemia
CCRF-CEM leukemia = test system: CCRF-CEM leukemia
EKVX NSCLC = test system: EKVX NSCLC
MDA-MB-231 breast = test system: MDA-MB-231 breast
M14 melanoma = test system: M14 melanoma
K-562 leukemia = test system: K-562 leukemia
T-47D breast = test system: T-47D breast
SNB-75 CNS = test system: SNB-75 CNS
SN12C renal = test system: SN12C renal
MDA-MB-435 = test system: MDA-MB-435
HOP-62 NSCLC = test system: HOP-62 NSCLC
UO-31 renal = test system: UO-31 renal
MCF7 breast = test system: MCF7 breast
NCI-H23 lung = test system: NCI-H23 lung
SW-620 colon = test system: SW-620 colon
OVCAR-3 ovarian = test system: OVCAR-3 ovarian
OVCAR-8 ovarian = test system: OVCAR-8 ovarian
HCC-2998 colon = test system: HCC-2998 colon
NCI-H522 lung = test system: NCI-H522 lung
HS 578T breast = test system: HS 578T breast
RXF 393 renal = test system: RXF 393 renal
SK-MEL-2 melanoma = test system: SK-MEL-2 melanoma
HOP-92 NSCLC = test system: HOP-92 NSCLC
DU-145 prostate = test system: DU-145 prostate
HT29 colon = test system: HT29 colon
KM12 colon = test system: KM12 colon
HCT-116 colon = test system: HCT-116 colon
OVCAR-5 ovarian = test system: OVCAR-5 ovarian
SF-539 CNS = test system: SF-539 CNS
U251 CNS = test system: U251 CNS
HL-60(TB) leukemia = test system: HL-60(TB) leukemia
NCI-H460 lung = test system: NCI-H460 lung
A549 NSCLC = test system: A549 NSCLC
SF-268 CNS = test system: SF-268 CNS
SNB-19 CNS = test system: SNB-19 CNS
UACC-257 melanoma = test system: UACC-257 melanoma
786-0 renal = test system: 786-0 renal
MALME-3M melanoma = test system: MALME-3M melanoma
NCI-H226 lung = test system: NCI-H226 lung
UACC-62 melanoma = test system: UACC-62 melanoma
RPMI-8226 leukemia = test system: RPMI-8226 leukemia

SMILES: Cn1cncc1[C@@](N)(c1ccc(Cl)cc1)c1ccc2c(c1)c(-c1cccc(Cl)c1)cc(=O)n2C
- GI50 (ACHN renal): 3.05 µM
- TGI (ACHN renal): 14.9 µM
- GI50 (MOLT-4 leukemia): 2.33 µM
- TGI (MOLT-4 leukemia): 7.97 µM
- GI50 (HCT-15 colon): 2.08 µM
- TGI (HCT-15 colon): 11.9 µM
- GI50 (A498 renal): 0.887 µM
- TGI (A498 renal): 17.2 µM
- GI50 (IGROV1 ovarian): 2.33 µM
- TGI (IGROV1 ovarian): 13 µM
- GI50 (SK-MEL-28 melanoma): 2.8 µM
- TGI (SK-MEL-28 melanoma): 14.7 µM
- GI50 (TK-10 renal): 2.57 µM
- TGI (TK-10 renal): 10.8 µM
- GI50 (LOX IMVI melanoma): 1.34 µM
- TGI (LOX IMVI melanoma): 5.36 µM
- GI50 (SK-OV-3 ovarian): 7.24 µM
- TGI (SK-OV-3 ovarian): 21.2 µM
- GI50 (CAKI-1 renal): 3.08 µM
- TGI (CAKI-1 renal): 14.7 µM
- GI50 (OVCAR-4 ovarian): 2.14 µM
- TGI (OVCAR-4 ovarian): 14.7 µM
- GI50 (SK-MEL-5 melanoma): 1.8 µM
- TGI (SK-MEL-5 melanoma): 6.83 µM
- GI50 (NCI/ADR-RES ovarian): 2.54 µM
- TGI (NCI/ADR-RES ovarian): 12 µM
- GI50 (BT-549 breast): 3.16 µM
- TGI (BT-549 breast): 14.4 µM
- GI50 (PC-3 prostate): 1.47 µM
- TGI (PC-3 prostate): 7.99 µM
- GI50 (COLO 205 colon): 2.31 µM
- TGI (COLO 205 colon): 9.09 µM
- GI50 (SF-295 CNS): 0.534 µM
- TGI (SF-295 CNS): 6.35 µM
- GI50 (SR leukemia): 0.165 µM
- TGI (SR leukemia): 4.32 µM
- GI50 (CCRF-CEM leukemia): 2.54 µM
- TGI (CCRF-CEM leukemia): 18.8 µM
- GI50 (EKVX NSCLC): 2.22 µM
- TGI (EKVX NSCLC): 13.1 µM
- GI50 (MDA-MB-231 breast): 2.52 µM
- TGI (MDA-MB-231 breast): 14.9 µM
- GI50 (M14 melanoma): 0.0818 µM
- TGI (M14 melanoma): 11.1 µM
- GI50 (K-562 leukemia): 0.669 µM
- TGI (K-562 leukemia): 6.16 µM
- GI50 (T-47D breast): 2.57 µM
- TGI (T-47D breast): 17.2 µM
- GI50 (SNB-75 CNS): 4.68 µM
- TGI (SNB-75 CNS): 18.9 µM
- GI50 (SN12C renal): 2.48 µM
- TGI (SN12C renal): 14.9 µM
- GI50 (MDA-MB-435): 0.172 µM
- TGI (MDA-MB-435): 1.93 µM
- GI50 (HOP-62 NSCLC): 5.51 µM
- TGI (HOP-62 NSCLC): 18.4 µM
- GI50 (UO-31 renal): 1.97 µM
- TGI (UO-31 renal): 6.97 µM
- GI50 (MCF7 breast): 1.55 µM
- TGI (MCF7 breast): 13.5 µM
- GI50 (NCI-H23 lung): 2.64 µM
- TGI (NCI-H23 lung): 14.4 µM
- GI50 (SW-620 colon): 1.82 µM
- TGI (SW-620 colon): 12.7 µM
- GI50 (OVCAR-3 ovarian): 2.55 µM
- TGI (OVCAR-3 ovarian): 7.86 µM
- GI50 (OVCAR-8 ovarian): 2.78 µM
- TGI (OVCAR-8 ovarian): 14.8 µM
- GI50 (HCC-2998 colon): 1.79 µM
- TGI (HCC-2998 colon): 7.08 µM
- GI50 (NCI-H522 lung): 0.655 µM
- TGI (NCI-H522 lung): 5.05 µM
- GI50 (HS 578T breast): 2.77 µM
- TGI (HS 578T breast): 15.5 µM
- GI50 (RXF 393 renal): 2.41 µM
- TGI (RXF 393 renal): 11.5 µM
- GI50 (SK-MEL-2 melanoma): 1.39 µM
- TGI (SK-MEL-2 melanoma): 4.99 µM
- GI50 (HOP-92 NSCLC): 0.174 µM
- TGI (HOP-92 NSCLC): 2.69 µM
- GI50 (DU-145 prostate): 1.81 µM
- TGI (DU-145 prostate): 3.66 µM
- GI50 (HT29 colon): 1.27 µM
- TGI (HT29 colon): 6.24 µM
- GI50 (KM12 colon): 1.18 µM
- TGI (KM12 colon): 7.02 µM
- GI50 (HCT-116 colon): 1.48 µM
- TGI (HCT-116 colon): 7.57 µM
- GI50 (OVCAR-5 ovarian): 5.59 µM
- TGI (OVCAR-5 ovarian): 19.3 µM
- GI50 (SF-539 CNS): 2.81 µM
- TGI (SF-539 CNS): 9.47 µM
- GI50 (U251 CNS): 1.4 µM
- TGI (U251 CNS): 7.49 µM
- GI50 (HL-60(TB) leukemia): 1.29 µM
- TGI (HL-60(TB) leukemia): 4.62 µM
- GI50 (NCI-H460 lung): 1.97 µM
- TGI (NCI-H460 lung): 11.9 µM
- GI50 (A549 NSCLC): 2.05 µM
- TGI (A549 NSCLC): 10.2 µM
- GI50 (SF-268 CNS): 3.01 µM
- TGI (SF-268 CNS): 14.7 µM
- GI50 (SNB-19 CNS): 5.61 µM
- TGI (SNB-19 CNS): 19.7 µM
- GI50 (UACC-257 melanoma): 1.37 µM
- TGI (UACC-257 melanoma): 12.4 µM
- GI50 (786-0 renal): 3.08 µM
- TGI (786-0 renal): 14 µM
- GI50 (MALME-3M melanoma): 0.901 µM
- TGI (MALME-3M melanoma): 12.1 µM
- GI50 (NCI-H226 lung): 5.98 µM
- TGI (NCI-H226 lung): 21.5 µM
- GI50 (UACC-62 melanoma): 0.42 µM
- TGI (UACC-62 melanoma): 12.5 µM
- GI50 (RPMI-8226 leukemia): 1.58 µM
- TGI (RPMI-8226 leukemia): 9.79 µM
